From patent US9169209B2, “Compounds and compositions for the inhibition of NAMPT” (FORMA TM, LLC, priority 2011, dated 2015)

Columns and labels:
[1] = tested on: A2780 cells; assay: In-Vitro Cell Proliferation Assay (SRB, 72 hours); assay type: cell-based; details: Homo sapiens, A2780, 72 h, A2780 cells, 72 hours, sulforhodamine B; read-out: A2780 IC50
Description: After overnight incubation at 37° C. and 5% CO2, the compound titrations were performed in a separate dilution plate by serially diluting the compounds in DMSO to make a 1000× stock. The compounds were then further diluted to 10× final concentration in culture media, whereupon 20 μL of each dilution was added to the plated cells with controls (e.g. DMSO and blank) to make a final volume of 200 μL. The final DMSO concentration in each well was 0.1%. The plates were then incubated for 72 hours at 37° C. in a 5% CO2 incubator. The number of viable cells was then assessed using sulforhodamine B (SRB) assay. Cells were fixed at 4° C. for 1 hour with the addition of 50 μL 30% trichloroacetic acid (TCA) to make a final concentration of 6% TCA. The plates were washed four times with H2O and allowed to dry for at least 1 hour, whereupon 100 μL of a 4% SRB in 1% acetic acid solution was added to each well and incubated at room temperature for at least 30 minutes. The plates were then washed three times with 1% acetic acid, dried, and treated with 100 μL of 10 mM Tris-Base solution. The plates were then read in a microplate reader at an absorbance of 570 nm. Background was generated on a separate plate with media only.
First, the signals from the background plate are averaged and then the background was subtracted from the test plates.
wherein x denotes the average signal of the compound-treated cells and y denotes the average signal of the DMSO-treated cells.
wherein X denotes the compound concentration 1, Y denotes the compound concentration 2, XX denotes the % inhibition at compound concentration 1 (X), and YY denotes the % inhibition at compound concentration 2 (Y).

[2] = molecular target: NAMPT (Homo sapiens (Human), UniProt P43490); assay: Biochemical Inhibition Assay (NAMPT enzymatic reaction, NMN quantified by mass spectrometry); details: recombinant His-tagged NAMPT, 33 nM; 1 μM NAM; read-out: Biochem IC50
Description: Recombinant His-tagged NAMPT was produced in E. coli cells, purified over a Ni column, and further purified over a size-exclusion column by XTAL Biostructures.
The NAMPT enzymatic reactions were carried out in Buffer A (50 mM Hepes pH 7.5, 50 mM NaCl, 5 mM MgCl2, and 1 mM THP) in 96-well V-bottom plates. The compound titrations were performed in a separate dilution plate by serially diluting the compounds in DMSO to make a 100× stock. […] The compound and enzyme mix was incubated for 15 minutes at room temperature, then 10 μL of 10× substrate and co-factors in Buffer A were added to the test well to make a final concentration of 1 μM NAM, 100 μM 5-Phospho-D-ribose 1-diphosphate (PRPP), and 2.5 mM Adenosine 5′-triphosphate (ATP). The reaction was allowed to proceed for 30 minutes at room temperature, then was quenched with the addition of 11 μL of a solution of formic acid and L-Cystathionine to make a final concentration of 1% formic acid and 10 μM L-Cystathionine. Background and signal strength was determined by addition (or non-addition) of a serial dilution of NMN to a pre-quenched enzyme and cofactor mix.
A mass spectrometry-based assay was used to measure the NAMPT reaction product (NMN) and the internal control (L-Cystathionine). NMN and L-Cystathionine were detected using the services of Biocius Lifesciences with the RapidFire system. In short, the NMN and L-Cystathionine are bound to a graphitic carbon cartridge in 0.1% formic acid, eluted in 30% acetonitrile buffer, and injected into a Sciex 4000 mass spectrometer. The components of the sample were ionized with electrospray ionization and the positive ions were detected. […] The fragments are quantified and the analyzed by the following method.
First the NMN signal is normalized to the L-Cystathionine signal by dividing the NMN signal by the L-Cystathionine signal for each well. The signal from the background wells are averaged and subtracted from the test plates.
Wherein x denotes the average signal of the compound treated wells and y denotes the average signal of the DMSO treated wells.
IC50s are Determined Using Excel and this Formula.
Wherein X denotes the compound concentration 1, Y denotes the compound concentration 2, XX denotes the % inhibition at compound concentration 1 (X), and YY denotes the % inhibition at compound concentration 2 (Y).

NAMPT, sequence (P43490 whole entry): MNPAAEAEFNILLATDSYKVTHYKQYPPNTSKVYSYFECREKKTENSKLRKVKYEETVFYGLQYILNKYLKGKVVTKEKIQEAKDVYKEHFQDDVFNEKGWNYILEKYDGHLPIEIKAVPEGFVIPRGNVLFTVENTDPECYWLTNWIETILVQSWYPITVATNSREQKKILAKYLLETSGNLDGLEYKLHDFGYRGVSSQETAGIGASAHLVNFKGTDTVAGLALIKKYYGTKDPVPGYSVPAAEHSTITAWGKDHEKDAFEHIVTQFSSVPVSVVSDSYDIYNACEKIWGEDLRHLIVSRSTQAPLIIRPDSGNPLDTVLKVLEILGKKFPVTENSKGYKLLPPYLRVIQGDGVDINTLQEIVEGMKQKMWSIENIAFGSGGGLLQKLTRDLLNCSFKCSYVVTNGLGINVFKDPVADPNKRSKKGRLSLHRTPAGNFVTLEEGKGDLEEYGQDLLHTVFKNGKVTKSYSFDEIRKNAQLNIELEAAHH

Row | Structure (SMILES) | IC50 [1] [nM] | IC50 [2] [nM]
1 | CCCOc1cccc(S(=O)(=O)c2ccc(NC(=O)/C=C/c3cccnc3)cc2)c1 [(2E)-N-{4-[(3-propoxybenzene)sulfonyl]phenyl}-3-(pyridin-3-yl)prop-2-enamide] | 86.8 | 21.6
2 | Cc1ccccc1S(=O)(=O)c1ccc(NC(=O)/C=C/c2cccnc2)cc1 [(2E)-N-{4-[(2-methylbenzene)sulfonyl]phenyl}-3-(pyridin-3-yl)prop-2-enamide] | 100 to 1000 | 33.3
3 | O=C(/C=C/c1cccnc1)Nc1ccc(S(=O)(=O)c2cccc3c2OCC3)cc1 [(2E)-N-[4-(2,3-dihydro-1-benzofuran-7-sulfonyl)phenyl]-3-(pyridin-3-yl)prop-2-enamide] | 36.1 | 4.9
4 | COc1ccc(S(=O)(=O)c2ccc(NC(=O)/C=C/c3cccnc3)cc2)cc1F [(2E)-N-{4-[(3-fluoro-4-methoxybenzene)sulfonyl]phenyl}-3-(pyridin-3-yl)prop-2-enamide] | 103 | 11.5
5 | O=C(/C=C/c1cccnc1)Nc1ccc(S(=O)(=O)c2cccc3ccsc23)cc1 [(2E)-N-[4-(1-benzothiophene-7-sulfonyl)phenyl]-3-(pyridin-3-yl)prop-2-enamide] | 106 | 16.1
6 | COc1ccc(OC(F)(F)F)cc1S(=O)(=O)c1ccc(NC(=O)/C=C/c2cccnc2)cc1 [(2E)-N-(4-{[2-methoxy-5-(trifluoromethoxy)benzene]sulfonyl}phenyl)-3-(pyridin-3-yl)prop-2-enamide] | 29.3 | 16.8
7 | O=C(/C=C/c1cccnc1)Nc1ccc(S(=O)(=O)c2cccc3c2oc2ccccc23)cc1 [(2E)-N-(4-{8-oxatricyclo[7.4.0.0^2,^7]trideca-1(13),2,4,6,9,11-hexaene-6-sulfonyl}phenyl)-3-(pyridin-3-yl)prop-2-enamide] | 7.3 | 3.5
8 | O=C(/C=C/c1cccnc1)Nc1ccc(S(=O)(=O)c2cccc3[nH]ccc23)cc1 [(2E)-N-[4-(1H-indole-4-sulfonyl)phenyl]-3-(pyridin-3-yl)prop-2-enamide] | 40.1 | 2.3
9 | COc1cncc(S(=O)(=O)c2ccc(NC(=O)/C=C/c3cccnc3)cc2)c1 [(2E)-N-[4-(5-methoxypyridine-3-sulfonyl)phenyl]-3-(pyridin-3-yl)prop-2-enamide] | 86.3 | 15.6
10 | O=C(/C=C/c1cccnc1)Nc1ccc(S(=O)(=O)c2cccc(OC(F)(F)F)c2)cc1 [(2E)-3-(pyridin-3-yl)-N-(4-{[3-(trifluoromethoxy)benzene]sulfonyl}phenyl)prop-2-enamide] | 47.7 | 61.5
11 | CCOc1ccc(S(=O)(=O)c2ccc(NC(=O)/C=C/c3cccnc3)cc2)cc1F [(2E)-N-{4-[(4-ethoxy-3-fluorobenzene)sulfonyl]phenyl}-3-(pyridin-3-yl)prop-2-enamide] | 175 | 34.1
12 | COc1ccc(C(C)C)cc1S(=O)(=O)c1ccc(NC(=O)/C=C/c2cccnc2)cc1 [(2E)-N-(4-{[2-methoxy-5-(propan-2-yl)benzene]sulfonyl}phenyl)-3-(pyridin-3-yl)prop-2-enamide] | 16.7 | 2.6
13 | O=C(/C=C/c1cccnc1)Nc1ccc(S(=O)(=O)c2cccc3c2Oc2ccccc2S3)cc1 [(2E)-N-[4-(phenoxathiine-4-sulfonyl)phenyl]-3-(pyridin-3-yl)prop-2-enamide] | 50.1 | 7.2
14 | O=C(Nc1ccc(S(=O)(=O)c2ccccc2)cc1)/C(F)=C/c1cccnc1 [(2Z)-N-[4-(benzenesulfonyl)phenyl]-2-fluoro-3-(pyridin-3-yl)prop-2-enamide] | 347 | 7
15 | COc1ccc(S(=O)(=O)c2ccc(NC(=O)/C=C/c3cccnc3)cc2)cc1Cl [(2E)-N-{4-[(3-chloro-4-methoxybenzene)sulfonyl]phenyl}-3-(pyridin-3-yl)prop-2-enamide] | 123 | 5.8
16 | CC(C)Oc1cccc(S(=O)(=O)c2ccc(NC(=O)/C=C/c3cccnc3)cc2)c1 [(2E)-N-(4-{[3-(propan-2-yloxy)benzene]sulfonyl}phenyl)-3-(pyridin-3-yl)prop-2-enamide] | 48.9 | 1.1
17 | O=C(/C=C/c1cccnc1)NCc1ccc(S(=O)(=O)c2ccccc2)cc1 [(2E)-N-{[4-(benzenesulfonyl)phenyl]methyl}-3-(pyridin-3-yl)prop-2-enamide] | 243 | 3
18 | COc1cccc(S(=O)(=O)c2ccc(NC(=O)/C=C/c3cccnc3)cc2)c1 [(2E)-N-{4-[(3-methoxybenzene)sulfonyl]phenyl}-3-(pyridin-3-yl)prop-2-enamide] | 114 | 85.7
19 | COc1cc(S(=O)(=O)c2ccc(NC(=O)/C=C/c3cccnc3)cc2)ccc1Cl [(2E)-N-{4-[(4-chloro-3-methoxybenzene)sulfonyl]phenyl}-3-(pyridin-3-yl)prop-2-enamide] | 72 | 26.3
20 | O=C(/C=C/c1cccnc1)Nc1ccc(S(=O)(=O)c2ccc3ncccc3c2)cc1 [(2E)-3-(pyridin-3-yl)-N-[4-(quinoline-6-sulfonyl)phenyl]prop-2-enamide] | 76.2 | 5.4
21 | O=C(/C=C/c1cccnc1)Nc1ccc(S(=O)(=O)c2cccc(-c3ccccc3)c2)cc1 [(2E)-N-{4-[(3-phenylbenzene)sulfonyl]phenyl}-3-(pyridin-3-yl)prop-2-enamide] | 100 to 1000 | 25.4
22 | O=C(/C=C/c1cccnc1)Nc1ccc(S(=O)(=O)c2cc(OC(F)(F)F)ccc2Cl)cc1 [(2E)-N-(4-{[2-chloro-5-(trifluoromethoxy)benzene]sulfonyl}phenyl)-3-(pyridin-3-yl)prop-2-enamide] | 100 to 1000 | 21
23 | Cc1cc(C)n(-c2cccc(S(=O)(=O)c3ccc(NC(=O)/C=C/c4cccnc4)cc3)c2)n1 [(2E)-N-(4-{[3-(3,5-dimethyl-1H-pyrazol-1-yl)benzene]sulfonyl}phenyl)-3-(pyridin-3-yl)prop-2-enamide] | 31.9 | 9.1
24 | Cc1cc(C)cc(S(=O)(=O)c2ccc(NC(=O)/C=C/c3cccnc3)cc2)c1 [(2E)-N-{4-[(3,5-dimethylbenzene)sulfonyl]phenyl}-3-(pyridin-3-yl)prop-2-enamide] | 95.4 | 17.1
25 | O=C(/C=C/c1cccnc1)Nc1ccc(S(=O)(=O)Nc2ccccc2OC(F)(F)F)cc1 [(2E)-3-(pyridin-3-yl)-N-(4-{[2-(trifluoromethoxy)phenyl]sulfamoyl}phenyl)prop-2-enamide] | 1270 | 375
26 | COc1ccc2cc(S(=O)(=O)c3ccc(NC(=O)/C=C/c4cccnc4)cc3)ccc2c1 [(2E)-N-[4-(6-methoxynaphthalene-2-sulfonyl)phenyl]-3-(pyridin-3-yl)prop-2-enamide] | 100 to 1000 | 
27 | Cc1cccc(S(=O)(=O)c2ccc(NC(=O)/C=C/c3cccnc3)cc2)c1 [(2E)-N-{4-[(3-methylbenzene)sulfonyl]phenyl}-3-(pyridin-3-yl)prop-2-enamide] | 93.3 | 
28 | Cn1ncc2ccc(S(=O)(=O)c3ccc(NC(=O)/C=C/c4cccnc4)cc3)cc21 [(2E)-N-[4-(1-methyl-1H-indazole-6-sulfonyl)phenyl]-3-(pyridin-3-yl)prop-2-enamide] | 53 | 
29 | Cc1ccc(S(=O)(=O)c2ccc(NC(=O)/C=C/c3cccnc3)cc2)cn1 [(2E)-N-[4-(6-methylpyridine-3-sulfonyl)phenyl]-3-(pyridin-3-yl)prop-2-enamide] | 100 to 1000 | 
